According to patent US20240116882A1, “NOVEL BENZOTRIAZOLE DERIVATIVE HAVING INHIBITORY ACTIVITY AGAINST ECTONUCLEOTIDE PYROPHOSPHATASE-PHOSPHODIESTERASE, AND USE THEREOF” (TXINNO BIOSCIENCE INC., priority 2021, published 2024):
Structures can show the parent of a compound that is named as a salt.

Target: T1, human recombinant ENPP1 enzymes (Homo sapiens, UniProt P22413)
T1 construct: purchased R & D systems
T1 sequence (P22413 1-925): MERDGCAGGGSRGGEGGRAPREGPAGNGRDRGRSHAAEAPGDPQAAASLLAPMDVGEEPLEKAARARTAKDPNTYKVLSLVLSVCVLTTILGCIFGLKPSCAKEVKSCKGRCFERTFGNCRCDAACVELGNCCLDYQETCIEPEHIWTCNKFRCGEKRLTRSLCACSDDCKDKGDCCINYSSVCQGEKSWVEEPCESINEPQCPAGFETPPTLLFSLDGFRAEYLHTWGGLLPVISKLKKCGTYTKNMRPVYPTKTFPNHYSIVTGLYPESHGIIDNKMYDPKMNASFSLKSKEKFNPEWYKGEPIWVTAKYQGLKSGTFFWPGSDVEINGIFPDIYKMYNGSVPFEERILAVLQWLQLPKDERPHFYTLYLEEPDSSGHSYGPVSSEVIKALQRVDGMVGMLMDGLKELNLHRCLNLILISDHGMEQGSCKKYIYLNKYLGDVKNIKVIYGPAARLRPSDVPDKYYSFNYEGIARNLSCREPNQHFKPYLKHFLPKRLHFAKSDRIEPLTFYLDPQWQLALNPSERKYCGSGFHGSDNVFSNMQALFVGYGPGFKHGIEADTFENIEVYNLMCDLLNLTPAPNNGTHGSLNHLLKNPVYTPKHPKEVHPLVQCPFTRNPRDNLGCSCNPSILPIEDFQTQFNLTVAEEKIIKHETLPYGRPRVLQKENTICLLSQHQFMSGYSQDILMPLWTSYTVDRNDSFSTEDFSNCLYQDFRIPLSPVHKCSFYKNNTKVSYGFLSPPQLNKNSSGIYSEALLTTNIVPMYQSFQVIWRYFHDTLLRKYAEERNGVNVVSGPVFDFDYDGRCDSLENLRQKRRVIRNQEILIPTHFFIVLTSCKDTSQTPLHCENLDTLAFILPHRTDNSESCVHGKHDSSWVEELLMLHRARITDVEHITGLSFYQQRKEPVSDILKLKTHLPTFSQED
Test: ENPP1 Enzyme Assay with cGAMP Substrate (AMP-Glo)
Format: biochemical
Details: human recombinant ENPP1, cGAMP 5 μM, 37° C. 90 minutes, AMP-Glo luminescence; read-out: Enzymatic activity (IC50)
Method: ENPP1 hydrolyzes nucleotides or nucleotide derivatives to produce nucleoside-5′-monophosphate and pyrophosphate. In addition, ENPP1 hydrolyzes 2′,3′-cGAMP to produce 5′-adenosine monophosphate (AMP) and 5′-guanosine monophosphate (GMP). AMP produced from the reaction is measured using the AMP-Glo® kit (Promega). The AMP-Glo® kit contains two reagents. The first reagent terminates the AMP-producing enzymatic reaction, removes ATP and converts the produced AMP into ADP. The second reagent converts ADP into ATP which is used to generate luminescence in the luciferase reaction. The amount of luminescence measured is proportional to the amount of AMP produced by ENPP1.
The final reaction solution contains 50 mM Tris (pH 8.5) buffer, 250 mM NaCl, 0.5 mM CaCl2), 1 μM ZnCl2, 5% glycerol and 1% DMSO. Serially diluted ENPP1 inhibitors (typically in the range of 10 μM to 0.5 nM) were pre-stored with human recombinant ENPP1 enzymes (R & D systems) at 3 ng/reaction and room temperature (RT) for 5 to 10 minutes. The reaction was initiated by addition of cGAMP (at a final concentration of 5 μM) and reacted at 37° C. for 90 minutes. At the end of the reaction, 10 μl of the AMP-Glo first reagent was added to stop the reaction and the result was stored at room temperature for 1 hour. After storage, 20 μl of an AMP detection solution (a mixture of AMP-Glo II reagent and Kinase-Glo at a ratio of 1:100) was added and stored at room temperature for 1 hour. Luminescence signals were measured using a Victor® plate reader (Perkin Elmer). The maximal activity control (containing enzymes and substrates in the presence of 1% DMSO; MAX) and the minimal activity control (containing substrates and 1% DMSO; MIN) were evaluated simultaneously. In each experiment, serially diluted reference ENPP1 inhibitors were tested as well. IC50, indicating % residual activity versus compound concentration was determined by fitting inhibition curves using the 3-parameter analysis of GraphPad Prism® software. Serially diluted samples of one compound were tested two or more times and an average IC50 of each compound was calculated.

IC50 [µM]	Structure (SMILES)
> 10	COc1ccc2c(c1)nnn2-c1ccc(CNS(N)(=O)=O)cn1 [Example 79, (N-(6-(5-methoxy-1H-benzo[d][1,2,3]triazol-1-yl)pyridin-3-yl)methyl)sulfamide]
> 10	COc1ccc2c(c1)nnn2-c1ccc(CNS(C)(=O)=O)cc1F [Example 112, N-(3-fluoro-4-(5-methoxy-1H-benzo[d][1,2,3]triazol-1-yl)benzyl)methanesulfonamide]
> 10	COc1ccc2c(c1)nnn2Cc1ccc(CNS(N)(=O)=O)cc1 [Example 105, N-(4-((5-methoxy-1H-benzo[d][1,2,3]triazol-1-yl)methyl)benzyl)sulfamide Hydrochloride]
< 1	COc1ccc2c(c1)nnn2-c1ccc(CN(C)S(N)(=O)=O)cc1 [Example 80]
< 1	COc1cc2nnn(-c3ccc(CNS(N)(=O)=O)cc3)c2cc1OC [Example 55, N-(4-(5,6-dimethoxy-1H-benzo[d][1,2,3]triazol-1-yl)benzyl)sulfamide]
> 10	NS(=O)(=O)NCc1ccc(-n2nnc3cc(OC(F)(F)F)ccc32)c(F)c1 [Example 90]
1 to 10	COc1cc2nnn(-c3ccc(CNS(N)(=O)=O)cc3)c2cc1C [Example 69, N-(4-(5-methoxy-6-methyl-1H-benzo[d][1,2,3]triazol-1-yl)benzyl)sulfamide]
< 1	COc1ccc2c(c1)nnn2-c1ccc(NS(N)(=O)=O)cc1 [Example 48, N-(4-(5-methoxy-1H-benzo[d][1,2,3]triazol-1-yl)phenyl)sulfamide Hydrochloride]
> 10	COc1cccc2nnn(-c3ccc(CNS(N)(=O)=O)cc3)c12 [Example 53, N-(4-(7-methoxy-1H-benzo[d][1,2,3]triazol-1-yl)benzyl)sulfamide]
> 10	COc1ccc2c(c1)nnn2-c1ccc(CNC2CC2)cc1 [Example 13, N-(4-(5-methoxy-1H-benzo[d][1,2,3]triazol-1-yl)-benzyl)cyclopropanamine Hydrochloride]

More lines, now with the values behind:

Structure (SMILES)	IC50 [µM]
COc1ccc2c(c1)nnn2C1CCNCC1 [Example 1, 5-methoxy-1-(piperidin-4-yl)-1H-benzo[d][1,2,3]triazole Hydrochloride]	> 10
COc1ccc2c(c1)nnn2-c1ccc2c(c1)CN(S(N)(=O)=O)CC2 [Example 97, 7-(5-methoxy-1H-benzo[d][1,2,3]triazol-1-yl)-3,4-dihydroisoquinoline-2(1H)sulfonamide]	< 1
COc1ccc2c(c1)nnn2C1CCN(CCS(N)(=O)=O)CC1 [Example 44, 2-(4-(5-methoxy-1H-benzo[d][1,2,3]triazol-1-yl)piperidin-1-yl)ethane-1-sulfonamide]	< 1
COc1ccc2c(c1)nnn2-c1cc2c(cc1F)CNCC2 [Example 26, 7-fluoro-6-(5-methoxy-1H-benzo[d][1,2,3]triazol-1-yl)-1,2,3,4-tetrahydroisoquinoline Hydrochloride]	> 10
COc1ccc2c(c1)nnn2-c1cc(C)sc1CN [Example 31, 3-(5-methoxy-1H-benzo[d][1,2,3]triazol-1-yl)-5-methylthiophen-2-yl)methanamine Hydrochloride]	> 10
COc1cc2nnn(-c3ccc(CNS(N)(=O)=O)cc3F)c2cc1F [Example 93, N-(3-fluoro-4-(6-fluoro-5-methoxy-1H-benzo[d][1,2,3]triazol-1-yl)benzyl)sulfamide]	< 1
COc1ccc2c(c1)nnn2-c1ccc(CNS(=O)(=O)c2ccc(C)cc2)cc1F [Example 114, N-(3-fluoro-4-(5-methoxy-1H-benzo[d][1,2,3]triazol-1-yl)benzyl)-4-methylbenzenesulfonamide]	> 10
COc1cc2nnn(-c3cc(F)c(CN)cc3F)c2cc1OC [Example 28]	> 10
COc1cc2nnn(-c3ccc4c(c3)CN(S(N)(=O)=O)C4)c2cc1OC [Example 102, 5-(5,6-dimethoxy-1H-benzo[d][1,2,3]triazol-1-yl)-isoindoline-2-sulfonamide]	< 1
COc1ccc2c(c1)nnn2-c1ccc2c(c1)CCN(S(N)(=O)=O)C2 [Example 96, 6-(5-methoxy-1H-benzo[d][1,2,3]triazol-1-yl)-3,4-dihydroisoquinoline-2(1H)sulfonamide]	< 1
COc1ccc2c(c1)nnn2CC1CCN(S(N)(=O)=O)CC1 [Example 45, 4-((5-methoxy-1H-benzo[d][1,2,3]triazol-1-yl)methyl)piperidine-1-sulfonamide]	< 1
NS(=O)(=O)NCc1ccc(-n2nnc3ccccc32)c(F)c1 [Example 56, N-(4-(1H-benzo[d][1,2,3]triazol-1-yl)-3-fluorobenzyl)sulfamide]	< 1
COc1ccc2c(c1)nnn2-c1cccc(CCN)c1 [Example 11, 2-(3-(5-methoxy-1H-benzo[d][1,2,3]triazol-1-yl)phenyl)ethan-1-amine Hydrochloride]	> 10
